Data published in patent publication US12059422B2 (MEI Pharma, Inc., priority 2011, dated 2024).

Key:
PI3K alpha = molecular target: T1, PI3K alpha (Homo sapiens, UniProt P42336); assay: Luciferase-based luminescence assay (KinaseGlo), PI3K alpha enzymatic activity; format: biochemical; conditions: inhibition of enzymatic activity, 25 μM ATP, read-out: IC50 p110α
T1 construct: purchased Invitrogen Corp., Carlsbad, CA, USA
Method: (§1) PI3K catalyzes the conversion of phosphatidylinositol-4,5-bisphosphate (PIP2) and ATP to phosphatidylinositol-3,4,5-trisphosphate (PIP3) and ADP. For all assays, the reaction buffer comprised 50 mM HEPES, pH 7.5, 3 mM MgCl2, 1 mM EGTA, 100 mM NaCl, 0.03% CHAPS and 2 mM DTT. Compounds for testing were dissolved and serially diluted in 100% DMSO (total of 10 concentrations), then diluted 1:25 in reaction buffer.
(§2) PI3K alpha and PI3K delta enzymatic activity was determined by measuring the amount of ATP consumed following the kinase reaction using a luciferase-based luminescence assay (KinaseGlo®, Promega Corp., Madison, WI, USA). PI3K enzyme solutions were prepared by diluting PI3K alpha (Invitrogen Corp., Carlsbad, CA, USA) or PI3K delta (Millipore, Billerica, MA, USA) in reaction buffer, to 4× the final assay concentration (final concentrations of enzymes were 1.65 nM and 6.86 nM for PI3K alpha and PI3K delta, respectively). A substrate solution was prepared by mixing PIP2 and ATP in reaction buffer at 2× the final assay concentration (final concentrations were 50 μM and 25 μM for PIP2 and ATP respectively). 2.5 μL each of the compound and kinase mixtures were added to individual wells of white low volume 384-well assay plates and mixed by shaking. The reactions were started by adding 5 μL of substrate mixture per well and shaking. The assay plates were covered and reactions were allowed to proceed for 1 hour (PI3K alpha) or 2 hours (PI3K delta), after which 10 μL of Kinase Glo® reagent was added. The plates were briefly centrifuged and incubated for 10 minutes, after which luminescence was measured using a FlexStation plate reader (Molecular Devices, Sunnyvale, CA, USA). IC50 values were determined by curve fitting using Graphpad Prism software (Graphpad Software, La Jolla, CA, USA).

PI3K beta = molecular target: T2, PI3K beta (Homo sapiens, UniProt P42338); assay: Luciferase-based luminescence assay (ADP Glo), PI3K beta enzymatic activity; format: biochemical; conditions: for IC50: inhibition of enzymatic activity, ADP Glo, 25 μM ATP, read-out: IC50 p110β; for α/β ratio: ratio of enzymatic IC50 values, Table 1
T2 construct: purchased Millipore, Billerica, MA, USA
Method: as §1
(§3) PI3K beta and gamma enzymatic activity was determined by measuring the amount of ADP produced following the kinase reaction using a luciferase-based luminescence assay (ADP Glo®, Promega Corp., Madison, WI, USA). PI3K enzyme solutions were prepared by diluting PI3K beta (Millipore, Billerica, MA, USA) or PI3K gamma (Invitrogen Corp., Carlsbad, CA, USA) in reaction buffer, to 4× the final assay concentration (final concentrations of enzymes were 4.8 nM and 7.6 nM for PI3K beta and PI3K gamma respectively). A substrate solution was prepared by mixing PIP2 and ATP in reaction buffer at 2× the final assay concentration (final concentrations were 50 μM and 25 μM for PIP2 and ATP respectively). 2.5 μL each of the compound and kinase mixtures were added to individual wells of white low volume 384-well assay plates and mixed by shaking. The reactions were started by adding 5 μL of substrate mixture per well and shaking. The assay plates were covered and reactions were allowed to proceed for 1 hour. Then, 5 μL of reaction mix was transferred to another white low volume 384-well plate, and 5 μL of ADP-Glo™ reagent was added. The plates were briefly centrifuged and incubated for 40 minutes, after which 10 μL of kinase detection buffer was added. The plates then were centrifuged briefly, shaken slowly and equilibrated at room temperature for 30 minutes, after which luminescence was measured using a FlexStation plate reader (Molecular Devices, Sunnyvale, CA, USA). IC50 values were determined by curve fitting using Graphpad Prism software (Graphpad Software, La Jolla, CA, USA).

PI3K delta = molecular target: T3, PI3K delta (Homo sapiens, UniProt O00329); assay: Luciferase-based luminescence assay (KinaseGlo), PI3K delta enzymatic activity; format: biochemical; conditions: for IC50: inhibition of enzymatic activity, KinaseGlo, 25 μM ATP, read-out: IC50 p110δ; for α/δ ratio: ratio of enzymatic IC50 against PI3Kα over IC50 against PI3Kδ; for β/δ ratio / γ/δ ratio: ratio of enzymatic IC50 values, Table 1
T3 construct: purchased Millipore, Billerica, MA, USA
Method: as §1, §2

mTOR = mTOR (Homo sapiens, UniProt P42345); assay: mTOR inhibition (Table 1); format: biochemical; conditions: Table 1, no method described
PI3K gamma = molecular target: T4, PI3K gamma (Homo sapiens, UniProt P48736); assay: Luciferase-based luminescence assay (ADP Glo), PI3K gamma enzymatic activity; format: biochemical; conditions: inhibition of enzymatic activity, 25 μM ATP, read-out: IC50 p110γ
T4 construct: purchased Invitrogen Corp., Carlsbad, CA, USA
Method: as §1, §3

PI3Kδ = molecular target: T5, PI3Kδ (Homo sapiens, UniProt O00329); assay: ELISA assay for PI3Kδ: sandwich ELISA, phosphorylation of AKT (Thr308) in Raji cells; format: cell-based; conditions: cellular, pAKT (Thr308), Raji cells, anti-Human IgM stimulation; read-out: IC50 p110δ
T5 construct: endogenous in cells; host or cells: Raji (ATCC #CCL-86)
Method: Cellular PI3Kδ activity was determined by measuring the phosphorylation of AKT (Thr308) using a sandwich enzyme-linked immunosorbant assay (ELISA). Raji (Burkitt's Lymphoma) cells were obtained from ATCC (ATCC #CCL-86). Phosphate buffer saline (PBS) contained 2.7 M NaCl, 54 mM KCl, 86 mM […] (dibasic, anhydrous), and 28 mM […] (monobasic, anhydrous) at pH 7.2. Wash buffer contained PBS supplemented with 0.05% Tween-20. Blocking buffer contained wash buffer supplemented with 1% BSA. A 10× stimulation mixture contained 5 μg/mL anti-Human IgM antibody (Sigma #12386) diluted in serum-free RPMI medium (CellGro #CV-10-040-CV). Compounds for testing were dissolved and serially diluted in 100% DMSO (total of 10 concentrations), and then diluted in serum-free RPMI to 5×final assay concentration.
Raji cells were subcultured in RPMI medium supplemented with 10% fetal bovine serum, 100 IU/mL penicillin, 100 μg/mL streptomycin, and 1×MEM non-essential amino acids. Sandwich ELISA plates were prepared by coating 96-well assay plates (Pierce #15042) with 100 μL/well capture antibody (Cell Signaling Technology #7142 or 7144) diluted in PBS. Plates were incubated overnight at 4° C., then washed with wash buffer, after which 200 μL/well blocking buffer was added to the plates and incubated at room temperature for at least 2 hrs. Raji cells were resuspended in serum-free RPMI medium and seeded into V-bottom, 2-mL 96-well blocks (Corning #3961) at 10^6 cells/well, then incubated for 2 hrs in a 37° C., 5% CO2 incubator. Compound treatment was performed by adding the 5× compound mixture to the cells and incubating for 2 hrs at 37° C., 5% CO2, after which the 10× stimulation mixture was added to the plates and incubated for 30 min at 37° C., 5% CO2. Cells were pelleted by centrifuging plates at 1500 RPM for 5 min at room temperature. Media was carefully removed and cells were lysed by adding 100 μL/well cell lysis buffer (Cell Signaling Technology #9803) supplemented with protease and phosphatase inhibitors (Thermo Fisher #78443). Plates were incubated on ice for 30 min, then the lysates (80 μL for pAKT^T308, 10 μL for total AKT) were transferred to prepared assay plates and incubated at 4° C. overnight. After washing plates with wash buffer, 100 μL/well detection antibody (Cell Signaling Technology #7142 or 7144) diluted in blocking buffer was added to the plates and incubated for 1 hr at 37° C. Plates were washed and 100 μL/well of HRP-conjugated secondary antibody (Cell Signaling Technology #7142 or 7144) diluted in blocking buffer was added to plates and incubated for 1 hr at room temperature. Plates were washed with wash buffer and 100 μL/well of luminescent substrate was added to plates. After 1 min on a plate shaker at medium speed, luminescence was read on a Wallac Victor2 plate reader. IC50 values were determined by curve fitting using a Collaborative Drug Discovery database (www.collaborativedrug.com).

T1 sequence (P42336 whole entry, species assumed): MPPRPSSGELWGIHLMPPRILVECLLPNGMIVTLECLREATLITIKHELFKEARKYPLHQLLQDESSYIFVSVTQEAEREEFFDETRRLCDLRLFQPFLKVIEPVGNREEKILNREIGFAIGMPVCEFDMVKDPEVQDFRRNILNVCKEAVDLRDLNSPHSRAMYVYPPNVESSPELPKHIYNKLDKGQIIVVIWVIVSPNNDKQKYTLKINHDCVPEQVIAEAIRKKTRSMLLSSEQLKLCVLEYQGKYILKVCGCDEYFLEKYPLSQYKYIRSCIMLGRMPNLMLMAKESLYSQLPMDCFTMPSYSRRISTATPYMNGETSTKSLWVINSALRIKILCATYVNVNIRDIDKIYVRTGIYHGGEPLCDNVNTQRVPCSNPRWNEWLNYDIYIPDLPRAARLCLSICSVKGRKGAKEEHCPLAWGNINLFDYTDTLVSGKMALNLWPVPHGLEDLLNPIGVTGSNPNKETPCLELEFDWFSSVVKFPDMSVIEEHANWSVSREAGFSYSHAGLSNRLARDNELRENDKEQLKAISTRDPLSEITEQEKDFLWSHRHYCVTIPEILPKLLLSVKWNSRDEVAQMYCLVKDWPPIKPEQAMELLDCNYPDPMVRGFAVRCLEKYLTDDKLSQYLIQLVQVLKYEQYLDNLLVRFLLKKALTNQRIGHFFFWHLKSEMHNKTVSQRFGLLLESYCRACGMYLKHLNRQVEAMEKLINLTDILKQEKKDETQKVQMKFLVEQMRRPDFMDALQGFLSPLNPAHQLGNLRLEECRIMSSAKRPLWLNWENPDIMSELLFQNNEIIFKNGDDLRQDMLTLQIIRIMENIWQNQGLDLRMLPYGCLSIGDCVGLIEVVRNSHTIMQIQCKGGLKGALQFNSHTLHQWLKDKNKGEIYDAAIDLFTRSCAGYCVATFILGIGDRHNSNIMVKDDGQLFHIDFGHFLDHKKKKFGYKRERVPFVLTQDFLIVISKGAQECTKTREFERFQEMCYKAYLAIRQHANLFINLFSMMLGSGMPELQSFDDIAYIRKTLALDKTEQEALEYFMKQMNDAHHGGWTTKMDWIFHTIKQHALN
T1 sequence (P27986 whole entry partner, species assumed): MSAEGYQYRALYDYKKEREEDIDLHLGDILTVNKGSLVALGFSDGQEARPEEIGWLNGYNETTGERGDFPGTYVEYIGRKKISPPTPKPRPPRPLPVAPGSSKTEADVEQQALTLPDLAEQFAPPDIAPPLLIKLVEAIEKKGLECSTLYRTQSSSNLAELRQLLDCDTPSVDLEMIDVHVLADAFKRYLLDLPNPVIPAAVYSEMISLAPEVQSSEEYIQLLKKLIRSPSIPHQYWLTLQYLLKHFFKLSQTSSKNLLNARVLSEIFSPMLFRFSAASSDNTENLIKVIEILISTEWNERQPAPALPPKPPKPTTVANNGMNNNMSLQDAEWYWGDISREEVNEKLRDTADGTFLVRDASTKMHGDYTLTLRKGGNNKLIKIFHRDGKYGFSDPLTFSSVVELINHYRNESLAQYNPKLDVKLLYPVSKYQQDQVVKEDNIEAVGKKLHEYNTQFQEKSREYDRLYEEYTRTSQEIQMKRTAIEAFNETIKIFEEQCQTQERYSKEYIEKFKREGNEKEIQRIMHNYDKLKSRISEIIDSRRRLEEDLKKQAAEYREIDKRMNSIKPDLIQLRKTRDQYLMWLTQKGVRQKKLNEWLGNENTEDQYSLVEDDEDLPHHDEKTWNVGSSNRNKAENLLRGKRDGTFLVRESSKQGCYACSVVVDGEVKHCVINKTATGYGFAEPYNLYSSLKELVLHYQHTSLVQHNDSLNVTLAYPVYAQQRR
T4 sequence (P48736 whole entry, species assumed): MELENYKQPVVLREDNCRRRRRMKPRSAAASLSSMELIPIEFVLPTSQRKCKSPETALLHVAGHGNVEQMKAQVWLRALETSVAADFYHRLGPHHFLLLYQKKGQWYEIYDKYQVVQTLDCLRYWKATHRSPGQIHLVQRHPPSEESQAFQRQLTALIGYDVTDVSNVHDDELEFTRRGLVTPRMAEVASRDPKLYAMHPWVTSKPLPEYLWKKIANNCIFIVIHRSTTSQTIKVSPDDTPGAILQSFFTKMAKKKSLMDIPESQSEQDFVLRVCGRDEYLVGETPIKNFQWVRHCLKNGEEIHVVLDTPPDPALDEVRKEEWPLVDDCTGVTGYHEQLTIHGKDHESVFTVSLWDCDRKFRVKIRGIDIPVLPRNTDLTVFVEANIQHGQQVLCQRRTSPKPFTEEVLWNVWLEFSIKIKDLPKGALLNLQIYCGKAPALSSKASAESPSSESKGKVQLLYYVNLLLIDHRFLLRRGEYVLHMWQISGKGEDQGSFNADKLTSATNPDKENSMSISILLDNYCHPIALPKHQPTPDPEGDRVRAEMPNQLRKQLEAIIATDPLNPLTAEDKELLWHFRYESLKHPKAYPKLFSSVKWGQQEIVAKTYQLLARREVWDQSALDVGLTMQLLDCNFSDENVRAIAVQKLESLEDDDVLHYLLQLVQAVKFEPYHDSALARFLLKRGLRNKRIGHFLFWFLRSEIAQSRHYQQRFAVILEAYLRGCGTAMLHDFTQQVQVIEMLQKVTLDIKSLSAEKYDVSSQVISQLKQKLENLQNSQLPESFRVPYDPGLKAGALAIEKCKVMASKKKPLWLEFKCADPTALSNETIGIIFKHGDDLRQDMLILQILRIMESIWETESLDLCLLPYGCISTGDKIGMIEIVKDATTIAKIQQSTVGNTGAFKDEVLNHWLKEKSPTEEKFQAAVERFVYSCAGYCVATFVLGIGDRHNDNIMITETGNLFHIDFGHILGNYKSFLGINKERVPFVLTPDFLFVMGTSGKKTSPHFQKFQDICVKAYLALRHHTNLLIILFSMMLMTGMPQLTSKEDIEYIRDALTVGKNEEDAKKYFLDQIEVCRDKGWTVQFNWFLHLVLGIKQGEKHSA
T5 sequence (O00329 whole entry): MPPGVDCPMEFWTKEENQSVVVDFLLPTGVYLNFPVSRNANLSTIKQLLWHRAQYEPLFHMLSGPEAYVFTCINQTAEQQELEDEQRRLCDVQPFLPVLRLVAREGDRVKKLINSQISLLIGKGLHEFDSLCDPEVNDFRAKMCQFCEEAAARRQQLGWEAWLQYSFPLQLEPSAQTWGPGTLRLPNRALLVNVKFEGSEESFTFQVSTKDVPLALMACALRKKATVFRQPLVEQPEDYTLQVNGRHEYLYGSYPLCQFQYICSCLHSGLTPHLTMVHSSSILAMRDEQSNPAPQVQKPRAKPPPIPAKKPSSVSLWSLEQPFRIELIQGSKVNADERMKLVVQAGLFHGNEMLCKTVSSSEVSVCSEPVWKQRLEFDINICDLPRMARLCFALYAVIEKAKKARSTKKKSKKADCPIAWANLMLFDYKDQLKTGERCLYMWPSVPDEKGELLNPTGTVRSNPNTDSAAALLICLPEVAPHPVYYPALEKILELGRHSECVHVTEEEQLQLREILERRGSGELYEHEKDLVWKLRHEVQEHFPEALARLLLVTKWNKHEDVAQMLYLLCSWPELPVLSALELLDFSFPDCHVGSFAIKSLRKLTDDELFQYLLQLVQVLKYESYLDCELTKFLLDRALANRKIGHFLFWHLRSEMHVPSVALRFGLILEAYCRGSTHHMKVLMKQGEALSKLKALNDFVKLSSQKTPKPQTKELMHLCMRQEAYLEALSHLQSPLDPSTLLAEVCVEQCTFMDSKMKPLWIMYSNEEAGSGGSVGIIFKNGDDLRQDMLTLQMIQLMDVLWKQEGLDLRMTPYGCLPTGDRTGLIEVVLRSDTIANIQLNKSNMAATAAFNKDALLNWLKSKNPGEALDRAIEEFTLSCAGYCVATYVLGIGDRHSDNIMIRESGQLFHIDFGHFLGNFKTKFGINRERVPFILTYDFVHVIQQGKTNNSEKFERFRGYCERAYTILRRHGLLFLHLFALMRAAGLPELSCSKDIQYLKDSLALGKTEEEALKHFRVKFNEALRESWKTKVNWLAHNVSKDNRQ
T5 sequence (P27986 whole entry partner): as the sequence (P27986 whole entry partner, species assumed) above
T3 sequence (O00329 whole entry, species assumed): as the sequence (O00329 whole entry) above
T3 sequence (P27986 whole entry partner, species assumed): as the sequence (P27986 whole entry partner, species assumed) above

| IC50 (PI3K alpha) [nM] | IC50 (PI3K beta) [nM] | α/β ratio (PI3K beta) | IC50 (PI3K delta) [nM] | α/δ ratio (PI3K delta) | β/δ ratio (PI3K delta) | γ/δ ratio (PI3K delta) | IC50 (mTOR) [nM] | IC50 (PI3K gamma) [nM] | IC50 (PI3Kδ) [nM] | SMILES |
| --- | --- | --- | --- | --- | --- | --- | --- | --- | --- | --- |
| > 500 | 200 to 500 | D’ | ≤ 100 | B’ | D’ | C’ | > 500 | 200 to 500 | ≤ 100 | CC(C)(Cc1ccc(Cl)cc1)Nc1nc(N2CCOCC2)nc(-n2c(C(F)F)nc3ccccc32)n1 [Compound A23, N-(1-(4-chlorophenyl)-2-methylpropan-2-yl)-4-(2-(difluoromethyl)-1H-benzo[d]imidazol-1-yl)-6-morpholino-1,3,5-triazin-2-amine] |
| > 500 | > 500 | D’ | 100 to 200 | D’ | C’ | D’ | > 500 | 200 to 500 | ≤ 100 | CC(C)(Cc1ccc(Br)cc1)Nc1nc(N2CCOCC2)nc(-n2c(C(F)F)nc3ccccc32)n1 [Compound A24, N-(1-(4-bromophenyl)-2-methylpropan-2-yl)-4-(2-(difluoromethyl)-1H-benzo[d]imidazol-1-yl)-6-morpholino-1,3,5-triazin-2-amine] |
| > 500 | > 500 | D’ | 200 to 500 | D’ | A’ | D’ | > 500 | > 500 | ≤ 100 | COc1ccc(CC(C)(C)Nc2nc(N3CCOCC3)nc(-n3c(C(F)F)nc4ccccc43)n2)cc1 [Compound A25, 4-(2-(difluoromethyl)-1H-benzo[d]imidazol-1-yl)-N-(1-(4-methoxyphenyl)-2-methylpropan-2-yl)-6-morpholino-1,3,5-triazin-2-amine] |
| 200 to 500 | 100 to 200 | D’ | ≤ 100 | A’ | B’ | A’ | > 500 | > 500 |  | CC(C)(Cc1ccccc1-c1ccccc1)Nc1nc(N2CCOCC2)nc(-n2c(C(F)F)nc3ccccc32)n1 [Compound A47, 4-(2-(difluoromethyl)-1H-benzo[d]imidazol-1-yl)-N-(1-(biphenyl-2-yl)-2-methylpropan-2-yl)-6-morpholino-1,3,5-triazin-2-amine] |
